Measurements published in PMC8958510 (Journal of Medicinal Chemistry, 2022).

How the values were obtained:
[1] = target: T1, recombinant human AChE (Homo sapiens, UniProt P22303); type: biochemical; conditions: recombinant human AChE; mean ± SEM; read-out: hAChE IC50
T1 construct: purchased Sigma-Aldrich, Milan, Italy
Experimental: (§6) Human and mouse acetylcholinesterase and human butyrylcholinesterase inhibition
(§7) assay. The inhibitory activity of the target compounds toward recombinant human AChE
(§8) (Sigma-Aldrich, Milan, Italy), recombinant mouse AChE (Bio-Techne, Milan, Italy) and
(§9) human serum BChE (Sigma-Aldrich, Milan, Italy) was assessed by Ellman’s method,8 using
(§10) Stock solutions of the AChEs were prepared by
(§11) dissolving enzyme lyophilized powder (hAChE) or diluting the enzyme commercial solution
(§12) (mAChE) in 0.1 M potassium phosphate (pH 8.0) containing 0.1% Triton X-100, whereas the
(§13) stock solution of hBChE was prepared in 0.1% aq. gelatin and the stock solutions of the
(§14) compounds to be tested were made in MeOH (2-4 mM). The assay solution consisted of 0.02
(§15) unit mL‒1 of the enzyme, 340 M 5,5’-dithiobis(2-nitrobenzoic acid), and 550 M of the
(§16) substrate acetylthiocholine iodide (for AChE assay) or butyrylthiocholine iodide (for BChE
(§17) assay) in 0.1 M potassium phosphate (pH 8.0). Blank solutions containing all components
(§18) except the enzymes were prepared to account for the non-enzymatic hydrolysis of the
(§19) Prior the addition of the substrate, the assay solutions were incubated at 37 °C for 20 min.
(§20) After the addition of the substrate, cuvettes were rapidly transferred into a Jasco V-530
(§21) double beam spectrophotometer equipped with thermostated cuvette holders (37 °C), in order
(§22) for 240 s. For each tested compound, five increasing concentrations were assayed in order to
(§23) achieve inhibition percentages of 20‒80%. Each concentration was assayed in triplicate. IC50
(§24) values were calculated from the inhibition plot (% inhibition vs log[inhibitor]) and are
(§25) expressed as mean ± SEM. Each IC50 value is the average of at least two experiments, each

[2] = target: T2, human serum BChE (Homo sapiens, UniProt P06276); type: biochemical
T2 construct: human serum BChE (Sigma-Aldrich, Milan, Italy) was assessed by Ellman’s method; purchased Sigma-Aldrich, Milan, Italy; host or cells: human serum
T2 sequence (P06276 29-602): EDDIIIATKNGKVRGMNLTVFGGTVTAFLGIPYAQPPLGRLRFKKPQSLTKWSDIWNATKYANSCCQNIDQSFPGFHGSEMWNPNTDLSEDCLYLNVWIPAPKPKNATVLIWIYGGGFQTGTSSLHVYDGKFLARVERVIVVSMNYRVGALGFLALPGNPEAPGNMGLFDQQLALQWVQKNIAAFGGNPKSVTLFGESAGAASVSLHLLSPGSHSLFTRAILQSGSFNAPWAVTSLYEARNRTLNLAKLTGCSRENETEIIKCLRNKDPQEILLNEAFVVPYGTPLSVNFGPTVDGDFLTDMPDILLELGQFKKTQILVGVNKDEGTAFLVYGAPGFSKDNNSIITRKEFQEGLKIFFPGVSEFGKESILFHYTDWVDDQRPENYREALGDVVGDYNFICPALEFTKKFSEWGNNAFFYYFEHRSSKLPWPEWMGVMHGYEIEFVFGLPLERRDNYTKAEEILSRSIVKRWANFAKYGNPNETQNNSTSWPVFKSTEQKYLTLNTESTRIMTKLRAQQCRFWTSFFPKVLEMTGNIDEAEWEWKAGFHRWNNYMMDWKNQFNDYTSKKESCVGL
Experimental: as §6, §7, §8, §9, §10, §11, §12, §13, §14, §15, §16, §17, §18, §19, §20, §21, §22, §23, §24, §25

[3] = tested on: SH-SY5Y cells; assay: Cytotoxicity in SH-SY5Y cells, propidium iodide stain; type: cell-based, human
Experimental: Cytotoxicity in SH-SY5Y cells. The cytotoxicity of the target compounds was evaluated in
Minimum Essential Medium / Ham’s-F12 (1:1, v/v) medium (Biowest), supplemented with
non-essential amino acids, 10% fetal bovine serum, 1 mM glutamine and 50 µg mL‒1
gentamycin (all reagents from Gibco, Thermo Fisher Scientific). For the experiments, cells
were seeded at 3 × 10^5 cells mL‒1 (100 µL per well) in 96-well plates (Nunc). After 24 h, the
test compounds were added concentrated from stock solutions in DMSO and culture medium
to triplicate wells to obtain the final different concentrations up to 100 µM in 0.1% DMSO.
Compounds were incubated for further 24 h. At termination, cytotoxicity was analyzed by the
propidium iodide (PI) fluorescence stain assay. All compounds were tested in three
independent experiments using different cell passages. The PI assay measures cell death. PI
enters into the cells with damaged membranes and greatly increases the fluorescence upon
binding to DNA. PI reagent (Molecular Probes) at the final concentration of 7.5 µg mL‒1 was
added to the cells and incubated for 1 h. The resulting fluorescence was measured by a Flx-
death induced by the compounds was calculated from to the fluorescence of treated cells (Ft)
relative to that of control cells (Fmin) and cells incubated with Triton X100 (Fmax) as the 0%
and 100% cell death, respectively [% = ((Ft-Fmin)/(Fmax-Fmin)) × 100]. All compounds
were tested in three independent experiments using different cell passages. LC50 values were
calculated for each experiment and the results are expressed as mean ± SD.

[4] = tested on: hippocampus of SAMP8 mice; assay: Hippocampal gene expression of inflammatory markers by qPCR in SAMP8 mice; type: in vivo, mouse; conditions: 2 mg kg^–1 day^–1 oral, 4 weeks, vs control
Experimental: Compostela, Spain). The human, rat and mice pooled microsomes, with a protein content of 20 mg mL‒1, were purchased from Tebu-Xenotech. The compounds were incubated in a 96-well microplate at 37 °C with the microsomes in 50 mM phosphate buffer (pH = 7.4) containing as cofactors 30 mM MgCl2, 10 mM NADP, 100 mM glucose-6-phosphate and 40 […]
Samples (75 µL) were taken from each well at 0, 10, 20, 40 and 60 min and transferred to a microplate. 4 °C Acetonitrile (75 µL) and internal standard (rolipram) were then added for inactivating the microsomes, and water with 0.5% formic acid (30 µL) was subsequently added for improving the chromatographic conditions, keeping the mixtures at 4 °C. The plate was centrifuged at 46,000 g for 30 min at 15 °C and supernatants were taken and analyzed in a UPLC-MS/MS system (UPLC QSM Waters Acquity) using reverse phase Acquity UPLC® HSST3 1.7 μm (2.1 mm × 50 mm, Waters) as the stationary phase, 0.1% formic acid in water (A) / 0.1% formic acid in acetonitrile (B) as the mobile phase, a flow of 0.8 mL min‒1, and the […]
The metabolic stability of the compounds was calculated from the logarithm of the remaining compound at each of the time points studied.
(§1) In Vivo Proof-of-Concept of the Dual sEH / AChE Inhibitor […] in SAMP8 Mice Animals and treatment. The senescence-accelerated mouse-prone 8 (SAMP8) is an accelerated aging model established through phenotypic selection from AKR/J mice by […]
(§2) abnormal APP and β-amyloid processing and tau pathology, among others. Likewise, SAMP8 […]
(§3) and oxidative stress markers are present at early ages and during adultness.15 In this work, 5-month-old male SAMP8 mice were used to perform behavioral and molecular analyses.
(§4) Animals were randomly divided into SAMP8 control (n=8) and SAMP8 treated with 12c […]
(§5) (n=8, 2 mg kg‒1 day‒1). The animals had free access to food and water and were kept under standard temperature conditions (22 ± 2 °C) and 12-h/12-h light/dark cycles (300 lux/0 lux).
Compound 12c was dissolved in 1.8% (2-hydroxypropyl)-β-cyclodextrin (Sigma-Aldrich, St. […]

[5] = tested on: SAMP8 mice; assay: Novel object recognition test (NORT) in SAMP8 mice; type: in vivo, mouse; conditions: 2 mg kg^–1 day^–1 oral, 4 weeks, vs vehicle-treated
Source text: as §1, §2, §3, §4, §5
Compound 12c was dissolved in 1.8% (2-hydroxypropyl)-β-cyclodextrin (Sigma-Aldrich, St.
Louis, MO) and administered through drinking water for 4 weeks (Figure S6 of the Supporting Information). Control groups received water plus 1.8% (2-hydroxypropyl)-β-cyclodextrin during the treatment period. […]
had been replaced by a novel one. The behavior was recorded, and the time that the mice spent exploring the new object (TN) and the old one (TO) were measured manually. […]
The discrimination index (DI) was calculated as (TN‒TO)/(TN+TO). […]

T1 sequence (P22303 32-614): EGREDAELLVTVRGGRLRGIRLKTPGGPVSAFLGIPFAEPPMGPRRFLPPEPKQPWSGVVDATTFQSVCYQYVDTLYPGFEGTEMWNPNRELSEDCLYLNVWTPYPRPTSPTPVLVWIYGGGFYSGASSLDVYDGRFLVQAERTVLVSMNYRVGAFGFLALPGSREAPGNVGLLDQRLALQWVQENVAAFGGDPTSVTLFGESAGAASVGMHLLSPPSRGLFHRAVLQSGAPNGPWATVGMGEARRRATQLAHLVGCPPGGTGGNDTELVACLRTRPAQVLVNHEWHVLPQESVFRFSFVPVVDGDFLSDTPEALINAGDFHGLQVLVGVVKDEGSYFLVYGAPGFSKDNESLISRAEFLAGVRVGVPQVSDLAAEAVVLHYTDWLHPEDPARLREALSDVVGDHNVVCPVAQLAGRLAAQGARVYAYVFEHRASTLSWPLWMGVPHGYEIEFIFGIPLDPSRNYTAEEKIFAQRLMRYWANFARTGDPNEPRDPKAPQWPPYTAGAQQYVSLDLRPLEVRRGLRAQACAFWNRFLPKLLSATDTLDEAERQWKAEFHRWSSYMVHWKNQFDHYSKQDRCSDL

For `O=C(Nc1ccc(OC(F)(F)F)cc1)NC1CCN(C(=O)CCCCNc2c3c(nc4cc(Cl)ccc24)CCCC3)CC1` [12c, 1-{1-{5-[(6-Chloro-1,2,3,4-tetrahydroacridin-9-yl)amino]pentanoyl}piperidin-4-yl}-3-[4-(trifluoromethoxy)phenyl]urea], the IC50 [1] was 12.9 ± 1.6 nM, the “hBChE potency relative to 6-chlorotacrine” value [2] was 3 fold and the IC50 ([2]; human serum BChE, mean ± SEM, n.a. = not active, % inhibition <10% at 100 μM, read-out: hBChE IC50) was 179 ± 90 nM. For the same molecule, the “toxicity to SH-SY5Y cells LD50” value ([3]; propidium iodide staining after 24 h of incubation, mean ± SD) was greater than 100 µM, the “LD50 (SH-SY5Y)” value ([3]; supplementary CSV) was > 100 ?M and the Gfap gene expression [4] was “tendency toward reduced gene expression”. For the same molecule, the Il-1β gene expression [4] was “tendency toward reduced gene expression”, the Il-6 gene expression [4] was “significant reduction” and the “short-term working memory (NORT discrimination index)” value ([5]; 2 h retention) was “significantly ameliorated”. The “long-term working memory (NORT discrimination index)” value ([5]; 24 h retention) was “significantly ameliorated”.
